Calls of active or inactive are those of the source. The rule behind the calls is not given here.
Experiments:
PC-3 [1] = assay: Antiproliferative activity against human PC-3 cells assessed as cell growth inhibition incubated for 48 hrs by MTT assay; assay type: functional
Histone deacetylase 1 = Histone deacetylase 1 (Homo sapiens, UniProt Q13547); assay: Inhibition of human HDAC1 (379 to 382 residues) using RHKKAc as flurogenic substrate
DU-145 [2] = assay: Antiproliferative activity against human DU-145 cells assessed as cell growth inhibition incubated for 48 hrs by MTT assay; assay type: functional
Histone deacetylase 2 = Histone deacetylase 2 (Homo sapiens, UniProt Q92769); assay: Inhibition of human HDAC2 (379 to 382 residues) using RHKKAc as flurogenic substrate
Histone deacetylase 3 = Histone deacetylase 3 (Homo sapiens, UniProt O15379); assay: Inhibition of human HDAC3 (379 to 382 residues) using RHKKAc as flurogenic substrate
Histone deacetylase 9 = Histone deacetylase 9 (Homo sapiens, UniProt Q9UKV0); assay: Inhibition of human HDAC9 using Boc-Lys(trifluoroacetyl)-AMC as flurogenic substrate
Homo sapiens = organism: Homo sapiens; assay: Selectivity ratio of IC50 for human HDAC1 to IC50 for human HDAC6
[3] = target: T1, Amine oxidase [flavin-containing] A (Homo sapiens, UniProt P21397); assay: Inhibition of human full length recombinant MAO-A expressed in insect cells using kynuramine as substrate
T1 sequence (P21397 whole entry): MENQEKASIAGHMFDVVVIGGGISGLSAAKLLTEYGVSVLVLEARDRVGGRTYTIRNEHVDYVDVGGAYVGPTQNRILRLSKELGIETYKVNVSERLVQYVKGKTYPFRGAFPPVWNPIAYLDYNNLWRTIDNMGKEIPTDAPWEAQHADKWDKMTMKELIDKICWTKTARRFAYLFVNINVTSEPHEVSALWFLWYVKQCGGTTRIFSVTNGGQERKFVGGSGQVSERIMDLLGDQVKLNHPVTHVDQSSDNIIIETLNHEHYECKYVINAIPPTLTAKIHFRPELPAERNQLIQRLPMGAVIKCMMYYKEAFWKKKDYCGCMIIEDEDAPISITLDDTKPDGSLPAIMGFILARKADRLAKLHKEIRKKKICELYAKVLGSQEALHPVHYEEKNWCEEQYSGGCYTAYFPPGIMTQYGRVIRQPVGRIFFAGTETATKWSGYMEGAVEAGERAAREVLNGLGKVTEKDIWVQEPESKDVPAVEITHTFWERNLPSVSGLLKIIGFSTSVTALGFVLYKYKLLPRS

DU-145 [4] = assay: Upregulation of acetyl-tubulin in human DU-145 cells at 0.625 to 5 uM by Western blot analysis; assay type: functional, cell-based; conditions: dose 0.625-5 µM
PC-3 [5] = assay: Downregulation of LSD1 in human PC-3 cells at 1.25 to 10 uM incubated for 48 hrs by Western blot analysis; assay type: functional, cell-based; conditions: dose 1.25-10 µM
[6] = Volume of distribution at steady state in Sprague-Dawley rat at 2 mg/kg, iv administered as single dose through tail vein measured upto 24 hrs post dose by UPLC-MS/MS analysis; assay type: ADME, organism-based; conditions: in vivo, read-out: Vdss
[7] = Cmax in Sprague-Dawley rat at 25 mg/kg, po administered once via gavage measured upto 24 hrs post dose by UPLC-MS/MS analysis; assay type: ADME, organism-based; design: dose 25 mg/kg, time < 24 hrs, route po; conditions: in vivo
[8] = Half life in Sprague-Dawley rat at 25 mg/kg, po administered once via gavage measured upto 24 hrs post dose by UPLC-MS/MS analysis; assay type: ADME, organism-based; conditions: in vivo
[9] = Half life in Sprague-Dawley rat at 25 mg/kg, po formulated using SMEDDS administered once via gavage measured upto 24 hrs post dose by UPLC-MS/MS analysis; assay type: ADME, organism-based; conditions: in vivo
[10] = AUC (0 to 24 hrs) in Sprague-Dawley rat at 25 mg/kg, po formulated using SMEDDS administered once via gavage measured upto 24 hrs post dose by UPLC-MS/MS analysis; assay type: ADME, organism-based; design: dose 25 mg/kg, time < 24 hrs, route po; conditions: in vivo
[11] = Metabolic stability in Sprague-Dawley rat hepatocyte assessed as intrinsic clearance at 10 uM by LC-MS/MS analysis; assay type: ADME, cell-based; conditions: hepatocytes, read-out: CLH
DU-145 [12] = assay: Antitumor activity against human DU-145 cells xenografted in athymic nude mouse assessed as tumor growth inhibition at 200 mg/kg, po administered twice daily and measured upto 60 days by caliper method relative to control; assay type: functional; conditions: DU-145, 1440 h, time <= 60 day, read-out: TGI

Sequence of Histone deacetylase 9 (Q9UKV0 whole entry): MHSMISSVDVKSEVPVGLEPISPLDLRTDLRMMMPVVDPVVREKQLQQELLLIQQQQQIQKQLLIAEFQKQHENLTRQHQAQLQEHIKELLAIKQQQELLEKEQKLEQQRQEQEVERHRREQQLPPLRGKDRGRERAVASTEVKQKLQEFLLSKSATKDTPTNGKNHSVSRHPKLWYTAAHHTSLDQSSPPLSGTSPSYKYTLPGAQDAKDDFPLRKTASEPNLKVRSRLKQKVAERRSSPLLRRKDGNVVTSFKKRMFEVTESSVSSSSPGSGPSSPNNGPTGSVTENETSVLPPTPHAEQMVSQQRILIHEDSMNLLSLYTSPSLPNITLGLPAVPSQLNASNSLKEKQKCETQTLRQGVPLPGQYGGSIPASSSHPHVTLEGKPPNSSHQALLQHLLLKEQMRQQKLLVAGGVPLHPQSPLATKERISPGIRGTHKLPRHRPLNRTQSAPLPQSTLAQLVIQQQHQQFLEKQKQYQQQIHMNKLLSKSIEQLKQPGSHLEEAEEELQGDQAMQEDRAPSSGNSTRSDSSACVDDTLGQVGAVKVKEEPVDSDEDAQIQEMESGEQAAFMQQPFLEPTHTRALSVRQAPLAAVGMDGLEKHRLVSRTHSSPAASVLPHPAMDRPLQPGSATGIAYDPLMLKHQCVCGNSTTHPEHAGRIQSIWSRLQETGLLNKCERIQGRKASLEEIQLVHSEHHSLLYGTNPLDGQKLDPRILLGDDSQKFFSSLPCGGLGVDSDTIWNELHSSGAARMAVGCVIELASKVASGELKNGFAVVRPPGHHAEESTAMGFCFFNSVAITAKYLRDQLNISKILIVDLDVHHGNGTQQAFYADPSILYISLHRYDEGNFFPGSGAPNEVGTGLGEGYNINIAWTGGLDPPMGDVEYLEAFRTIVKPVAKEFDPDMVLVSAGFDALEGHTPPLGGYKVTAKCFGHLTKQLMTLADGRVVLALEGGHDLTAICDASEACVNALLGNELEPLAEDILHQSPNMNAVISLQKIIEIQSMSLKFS
Sequence of Histone deacetylase 1 (Q13547 whole entry, the tested form may be a part): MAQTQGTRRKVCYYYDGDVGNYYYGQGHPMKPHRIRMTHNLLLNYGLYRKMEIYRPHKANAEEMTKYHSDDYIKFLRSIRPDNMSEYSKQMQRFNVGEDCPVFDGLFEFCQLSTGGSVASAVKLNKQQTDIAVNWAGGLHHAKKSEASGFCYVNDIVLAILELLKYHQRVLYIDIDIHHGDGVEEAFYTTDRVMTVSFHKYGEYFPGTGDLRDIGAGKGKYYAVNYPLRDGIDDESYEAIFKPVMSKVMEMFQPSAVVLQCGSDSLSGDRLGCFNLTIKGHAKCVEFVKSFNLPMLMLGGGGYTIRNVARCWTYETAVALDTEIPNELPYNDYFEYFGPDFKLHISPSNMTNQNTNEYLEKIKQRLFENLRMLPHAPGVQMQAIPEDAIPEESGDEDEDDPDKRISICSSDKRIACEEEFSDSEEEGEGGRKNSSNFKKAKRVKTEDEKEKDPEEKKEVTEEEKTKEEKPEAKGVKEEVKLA
Sequence of Histone deacetylase 3 (O15379 whole entry, the tested form may be a part): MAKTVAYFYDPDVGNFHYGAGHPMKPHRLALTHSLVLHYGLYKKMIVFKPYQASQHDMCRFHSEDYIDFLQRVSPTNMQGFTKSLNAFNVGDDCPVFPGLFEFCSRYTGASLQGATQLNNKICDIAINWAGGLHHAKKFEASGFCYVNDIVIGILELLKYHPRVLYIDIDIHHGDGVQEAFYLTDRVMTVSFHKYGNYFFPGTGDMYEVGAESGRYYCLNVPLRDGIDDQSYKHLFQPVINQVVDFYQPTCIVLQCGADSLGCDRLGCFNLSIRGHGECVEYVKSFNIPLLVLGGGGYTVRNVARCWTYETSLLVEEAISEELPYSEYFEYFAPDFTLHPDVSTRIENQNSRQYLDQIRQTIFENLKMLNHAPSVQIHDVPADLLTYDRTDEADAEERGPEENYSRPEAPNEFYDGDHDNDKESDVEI
Sequence of Histone deacetylase 2 (Q92769 whole entry, the tested form may be a part): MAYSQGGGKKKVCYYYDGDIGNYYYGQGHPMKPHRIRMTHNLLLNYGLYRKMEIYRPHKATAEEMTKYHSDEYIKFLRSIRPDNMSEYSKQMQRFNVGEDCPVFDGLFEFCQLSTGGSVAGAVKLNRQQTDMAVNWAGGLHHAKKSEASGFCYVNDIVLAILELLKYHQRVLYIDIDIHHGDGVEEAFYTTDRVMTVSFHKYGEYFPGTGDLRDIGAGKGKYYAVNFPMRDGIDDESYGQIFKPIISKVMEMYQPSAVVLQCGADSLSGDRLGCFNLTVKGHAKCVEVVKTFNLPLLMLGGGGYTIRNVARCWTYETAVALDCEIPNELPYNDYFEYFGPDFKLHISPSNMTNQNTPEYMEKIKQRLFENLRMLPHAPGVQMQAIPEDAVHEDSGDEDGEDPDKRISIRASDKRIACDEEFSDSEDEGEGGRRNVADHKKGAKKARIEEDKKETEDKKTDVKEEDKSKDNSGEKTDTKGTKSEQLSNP

- GI50 (PC-3 [1]): 330 nM
- IC50 (Histone deacetylase 1): 673 nM
- GI50 (DU-145 [2]): 420 nM
- IC50 (Histone deacetylase 2): 1540 nM
- IC50 (Histone deacetylase 3): 133 nM
- IC50 (Histone deacetylase 9): > 10000 nM
- Ratio IC50 (Homo sapiens): 33.6
- IC50 [3]: 790 nM
- Vd [6]: 247 L/kg
- Cmax [7]: 74.1 ng/mL
- half-life [8]: 3.4 h
- half-life [9]: 4.3 h
- AUC(0-t) at 24 h [10]: 587 ng·h/mL
- CLint scaled at 10 µM [11]: 90.2 mL/min/kg
Compound: C#CCN(C)Cc1cccc(NC(=O)CCCCCCC(=O)NO)c1
- Activity (DU-145 [4]): Active
- Activity (PC-3 [5]): Active
- inhibition in vivo at 200 mg/kg (DU-145 [12]): 80.8%
